Reference: article PMC7562719, “Discovery of a CNS penetrant small molecule SMN2 splicing modulator with improved tolerability for spinal muscular atrophy” (Scientific Reports, 2020)
Marks after values point to notes of the source that are not given here.

Assays:
[1] = test system: TK6 cells; conditions: positive control 6 µg/mL (21 µM), 3 h + S9 mix
Protocol: These articles have been recommended for use in the OECD test guideline (Test No. 487)[49]. For metabolic activation, pre-cultured TK6 cells with the culture medium were supplemented with Sprague–Dawley rat liver mix (S9 mix, IEDA TRADING CORPORATION, Japan) at 3.33 vol%. Then, compound was mixed with the cell suspension and treated under the following treatment conditions: • Short-term treatment for 3 h without S9 mix, followed by a 21-h culture (−S9 mix assay), • Short-term treatment for 3 h with S9 mix, followed by a 21-h culture (+S9 mix assay), or • Continuous treatment for 24 h without S9 mix (24-h assay). For treatment conditions 1 and 2, the cells in each well were centrifuged after the 3-h treatment, the supernatants were discarded, and the cells were washed twice with culture medium. The cells were further cultured with fresh culture medium for 21 h. The compound-treated cells were examined by the unaided eye for precipitation of compound at the start and end of treatment. After treatment, the rest of each cell suspension was centrifuged and then the cells were suspended in a 0.075 mol/L KCl solution at room temperature for 10 min. Then, 25 vol% acetic acid containing methanol was added and the centrifuged cells were fixed. The fixed cells were resuspended in a small amount of 3 vol% acetic acid containing methanol, which was changed two times by centrifugation. Finally, a drop of the cell suspension was transferred onto a slide and dried at room temperature. The slides were stained at room temperature in a 3 vol% Giemsa solution (Merck KGaA) diluted with Sörensen phosphate buffer (1/15 mol/L, pH 6.8, Muto Pure Chemicals Co. Ltd.). Four slides per dose (2 slides per well) were prepared. Each slide was coded randomly. The test was conducted at the following doses of TEC-1. -S9 mix assay: 1.5, 1.7, 1.9, 2.1, 2.3, 2.5, 2.7, 2.9, and 3.1 µg/mL, + S9 mix assay: 1.9, 2.1, 2.3, 2.5, 2.7, 2.9, 3.1, 3.3, and 3.5 µg/mL, 24-h assay: 0.9, 1.1, 1.3, 1.5, 1.7, 1.9, 2.1, 2.3, and 2.5 µg/mL. To perform scoring for compound and negative control groups, the number of cells in the suspensions was counted using a Coulter Counter (Z2; Beckman Coulter, Inc.). The positive control groups were not determined. A portion (0.5 mL) of the cell suspension was diluted with 20 mL of Isoton II, and 0.5 mL of this solution was used for cell counts. The cell number per 1 mL at each culture was calculated by the following formula. Cellnumber/mL=Dilutionfactor×valueof1stcount+valueof2ndcount/2×2
The population doubling (PD) and relative population doubling (RPD) at each concentration was calculated by the following formula. PD=log10cell number at the end of culture/cell number at the start of treatment∗/log102∗:1×10^5cells/mL.
RPD%=PD of the compound-treated group/PD of the negative control group×100 For the treated groups, the 3 consecutive concentrations were selected as follows. […] For all concentrations, 4000 mononuclear cells with cytoplasm were analyzed and the number of cells with micronucleus (micronuclei) was counted using a microscope (× 600). Micronucleus is identified as a round or oval small nucleus in the cytoplasm with the same staining intensity as the main nucleus. The diameter of each micronucleus should be less than 1/2 of the diameter of the main nucleus. Two investigators observed the slides. Each investigator scored 1000 cells for the frequency of micronucleated cells. Data from the two investigators were combined for each culture and the combined data from duplicate cultures were pooled for each concentration for each treatment condition. A cell having one or more micronuclei was recorded as a micronucleated cell.

[2] = test system: FL-SMN2 mRNA; assay: qPCR of FL-SMN2 transcripts in SMA type II fibroblasts (GM03813); assay type: cell-based, human; conditions: 24 h, 50% total FL-SMN2 mRNA increase, normalized to GAPDH, 95% CI in brackets
Protocol: (§1) GM03813 fibroblasts, GM24468-derived MNs, NRK-49F, MDCK, CV-1, or NCMDF cells were plated at a density of 0.5 or 1.5 × 10^4, 4 × 10^4, 5 × 10^3, 5 × 10^3, 8 × 10^3, or 6 × 10^3 cells/well on 96-well plates, respectively. After approximately 6 h, the medium was added with the same volume of culture medium containing each compound at the concentration of 0.06, 0.2, 0.6, 0.2, and 6 µM. The final concentration of DMSO was adjusted to 0.1% in culture condition.
(§2) All cells were treated with above compounds for 24 h and washed once with Dulbecco’s Phosphate-Buffered Saline without Ca and Mg [D-PBS (–)] (Wako or Nakarai Tesque). In case of using GM03813 or GM24468-derived MNs, cell lysis and reverse transcription were carried out using SuperPrep Cell Lysis & RT Kit for qPCR in accordance with manufacturer’s recommendations (Toyobo, Japan). qPCR was performed using THUNDERBIRD Probe qPCR Mix (Toyobo). The final concentrations of primers and probes were adjusted to 0.4 µM and 0.15 µM, respectively (Supplementary Table 1). Cycle conditions were as follows; 95 °C for 1 min; followed by 40 cycles of denaturation at 95 °C for 15 s; annealing and elongation at 60 °C for 1 min in the ViiA7 RT-PCR system (Thermo Fisher Scientific). The copy numbers of each target were normalized to those of GAPDH.

[3] = test system: FOXM1b; assay: qPCR of FOXM1b/c variant in GM03813 fibroblasts; assay type: cell-based, human
Protocol: as §1, §2

[4] = test system: FOXM1ΔC; assay: qPCR of FOXM1ΔC variant in GM03813 fibroblasts; assay type: cell-based, human; conditions: 24 h, 300% total target mRNA increase, 95% CI in brackets
Protocol: as §1, §2

[5] = test system: FOXM1a; assay: qPCR of FOXM1a variant in GM03813 fibroblasts; assay type: cell-based, human; conditions: 24 h, 200% total target mRNA increase, 95% CI in brackets
Protocol: as §1, §2

[6] = test system: FOXM1; assay: qPCR of FOXM1 transcripts in cynomolgus monkey fibroblasts (NCMDF); assay type: cell-based; conditions: 24 h
Protocol: as §1
In the instances of using NRK-49F, MDCK, CV-1 or NCMDF, cell lysis and reverse transcription were carried out using Custom Cells to CT Lysis Components (Ambion) and Cells-to-CT RT Components (Ambion), each in accordance with manufacturer’s recommendations. qPCR was conducted using TaqMan Fast Advanced Master Mix. The final concentrations of primers and probes were adjusted to 0.4 µM and 0.15 µM, respectively. Cycle conditions were as follows; 50 °C for 2 min and 95 °C for 2 s; followed by 40 cycles of denaturation at 95 °C for 1 s; annealing and elongation at 60 °C for 20 s in the ABI7900HT RT-PCR system (Applied Biosystems, USA). The relative quantification in gene expression was determined using the 2−ΔΔCt method.

[7] = design: method as in PMID 30044619; conditions: in vitro and in vivo; cited from earlier work
[8] = design: method as in PMID 30302786; conditions: Phase I clinical trial, 18 mg/individual; cited from earlier work
[9] = test system: cynomolgus monkeys; conditions: cynomolgus monkey, in vivo; cited from earlier work

SMILES: O=P1(N(CCCl)CCCl)NCCCO1 (stereo not shown) [CP, cyclophosphamide, reference compound]
- Micronucleated cells Well 1 [1]: 39
- Micronucleated cells Well 2 [1]: 46
- Micronucleated cells Total ([1]; counted in 4000 cells): 85
- Micronucleated cells (%) ([1]; p < 0.01): (2.13) ** %

SMILES: Cc1cn2nc(-c3cc(=O)n4cc(N5CCNC6(CC6)C5)ccc4n3)cc(C)c2n1 [Risdiplam]
- EC1.5× FL-SMN2 [2]: 15.8 (8.81–32.8) nM
- Selectivity FOXM1b /FL-SMN2 ([3]; EC50 of FOXM1b divided by EC1.5× of FL-SMN2): 8
- EC50 ([3]; Homo sapiens, Fibroblast, GM03813 fibroblasts, 24 h, 50% total target mRNA reduction, 95% CI in brackets): 124 nM
- EC4.0× FOXM1ΔC [4]: 38.9 (6.98–85.0) nM
- EC3.0× FOXM1a [5]: 24.2 (4.49–78.5) nM
- FOXM1 splicing in cynomolgus monkey cells [6]: FOXM1 mis-splicing was similarly observed
- micronucleus induction [7]: induces micronucleation in vitro and in vivo
- exposure cap, AUC0–24h in plasma [8]: 1500 ng·h/mL
- findings in 39-week toxicological study [9]: pathological intestinal and pancreatic changes, and irreversible retinal degeneration
